From patent publication US5538976A, “Substituted tertiary amino compound or salt thereof” (Yamanouchi Pharmaceutical Co., Ltd., priority 1992, dated 1996)

How the values were obtained:
aromatase [1] = target: T1, aromatase (Rattus norvegicus, UniProt P22443); test: biochemical
T1 sequence (P22443 1-508): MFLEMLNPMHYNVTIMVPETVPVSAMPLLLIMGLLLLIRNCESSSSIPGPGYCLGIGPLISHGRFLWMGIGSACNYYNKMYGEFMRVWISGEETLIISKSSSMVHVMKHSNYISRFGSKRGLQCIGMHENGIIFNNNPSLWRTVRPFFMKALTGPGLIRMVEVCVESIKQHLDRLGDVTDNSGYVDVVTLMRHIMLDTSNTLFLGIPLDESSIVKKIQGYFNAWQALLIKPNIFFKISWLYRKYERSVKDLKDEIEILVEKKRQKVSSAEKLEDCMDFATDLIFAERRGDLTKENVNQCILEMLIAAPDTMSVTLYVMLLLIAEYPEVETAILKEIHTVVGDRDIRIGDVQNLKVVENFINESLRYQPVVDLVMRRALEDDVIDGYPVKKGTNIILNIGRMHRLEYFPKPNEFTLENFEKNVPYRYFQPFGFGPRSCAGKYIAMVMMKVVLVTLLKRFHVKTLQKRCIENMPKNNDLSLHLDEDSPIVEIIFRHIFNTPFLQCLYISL
Source text: IC50 of a test compound in aromatase inhibition was obtained from inhibition of ^3 H2 O released from [1,2-^3 H]-androstenedione in the microsome of a rat ovary.

estradiol biosynthesis = test: In vivo inhibiting activity on estrogen production in rat (PMSG-primed, ovarian estradiol by RIA); conditions: po, per os, 3 hours after administration, read-out: inhibition on estradiol biosynthesis with respect to the control
Method: (b) In vivo inhibiting activity on estrogen production in rat:
PMSG (pregnant mare serum gonadotropin) (100 IU/rat) was subcutaneously injected to an immature female Wister rat weighing 60 g. After 72 hours from the injection, a suspension of a test compound in 0.5 ml of 20% polyethylene glycol aqueous solution was given to the rat per os. A 20% polyethylene glycol aqueous solution was administered to a control group. After 3 hours from the administration of the drug or placebo, the rat was decapitated and bled out, and the ovary was removed. The estradiol concentration in the ovary was measured by RIA.

[2] = test system: dimethylbenzanthracene (DMBA)-induced tumor; test: Antitumor activity in rat, DMBA-induced breast carcinoma; format: in vivo; conditions: orally, daily dose of from 0.04 to 1.0 mg/kg for 2 weeks, rats bearing breast carcinoma
Method: (c) Antitumor activity in rat:
The antitumor activity on breast carcinoma was measured in a dimethylbenzanthracene (DMBA)-induced tumor in a female Sprague-Dawlay rat.
This experimentation is commonly employed as a method for determining an antitumor activity in an animal model of breast carcinoma.

aromatase [3] = target: T2, aromatase (Homo sapiens, UniProt P11511); test: Inhibiting activity on aromatase of human placenta origin (microsome, 3H2O release from [1,2-3H]androstenedione); format: biochemical; conditions: in vitro, read-out: IC50 for in vitro aromatase inhibition
T2 construct: in the microsome of a human placenta; from tissue; host or cells: human placenta microsomes
T2 sequence (P11511 1-503): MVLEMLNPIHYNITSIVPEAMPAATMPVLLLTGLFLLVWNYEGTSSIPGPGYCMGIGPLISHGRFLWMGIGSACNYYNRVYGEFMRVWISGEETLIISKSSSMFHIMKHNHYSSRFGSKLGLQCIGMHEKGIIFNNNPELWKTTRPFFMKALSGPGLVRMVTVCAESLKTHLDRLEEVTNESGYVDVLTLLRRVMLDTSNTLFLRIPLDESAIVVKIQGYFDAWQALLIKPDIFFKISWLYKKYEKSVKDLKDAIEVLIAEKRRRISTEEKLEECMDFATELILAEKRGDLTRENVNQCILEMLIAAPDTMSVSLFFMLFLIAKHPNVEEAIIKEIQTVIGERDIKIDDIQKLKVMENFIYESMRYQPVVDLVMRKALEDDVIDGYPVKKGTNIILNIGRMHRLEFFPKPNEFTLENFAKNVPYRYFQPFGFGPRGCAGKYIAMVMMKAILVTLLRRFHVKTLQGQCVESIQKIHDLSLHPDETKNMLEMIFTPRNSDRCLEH
Source text: (a) Inhibiting activity on aromatase of human placenta origin:
Measured in accordance with the method described in Endocrine Research, Vol. 16, No. 2, p. 253 (1990).
The inhibiting activity of a test compound was obtained from inhibition of ^3 H2 O released from [1,2-^3 H]androstenedione in the microsome of a human placenta.
IC50 value for in vitro aromatase inhibition in the microsome of a human placenta was obtained according to the method (2)-(a).

| EC50 (aromatase [1]) | IC50 (aromatase [3]) | IC50 (aromatase [1]) | SMILES | inhibition at 0.03 mg/kg (estradiol biosynthesis) | suppression or regression of tumors in the mammary gland [2] |
| --- | --- | --- | --- | --- | --- |
| < 50 nM | – | – | Fc1ccc(N(Cc2ccccc2)Cc2cccnc2)c(F)c1 [Comparative Compound 2, reference compound] | – | – |
| – | 0.036 nM | 0.22 nM | N#Cc1ccc(N(Cc2cc(F)cc(F)c2)c2cncnc2)cc1 [Example 34, 5-[N-(4-Cyanophenyl)-N-(3,5-difluorobenzyl)amino]pyrimidine] | 86% | suppression or regression of tumors |
